The results in this text go back to patent US8618086B2, “Compositions and methods for treating hair loss using C16-C20 aromatic tetrahydro prostaglandins” (Duke University, priority 2000, dated 2013).

Experiment [1] has as its system C3H mice (conversion from telogen to anagen, skin color grade). Briefly: Telogen Conversion Assay. It counts as in vivo. Conditions: topical; for Average Grades, 23 Days: visual skin color grade 0 (whitish) to 4 (dark blue, full anagen), average of 7 mice after 23 days. Here is the method: PGF's are tested for their potential to grow hair using the Telogen Conversion Assay. The Telogen Conversion Assay measures the potential of a PGF to convert mice in the resting stage of the hair growth cycle (“telogen”), to the growth stage of the hair growth cycle (“anagen”).
Without intending to be limited by theory, there are three principal phases of the hair growth cycle: anagen, catagen, and telogen. It is believed that there is a longer telogen period in C3H mice (Harlan Sprague Dawley, Inc., Indianapolis, Ind.) from approximately 40 days of age until about 75 days of age, when hair growth is synchronized. It is believed that after 75 days of age, hair growth is no longer synchronized. Wherein about 40 day-old mice with dark fur (brown or black) are used in hair growth experiments, melanogenesis occurs along with hair (fur) growth wherein the topical application of hair growth inducers are evaluated. The Telogen Conversion Assay herein is used to screen PGF's for potential hair growth by measuring melanogenesis.
Three groups of 44 day-old C3H mice are used: a vehicle control group, a positive control group, and a test PGF group, wherein the test PGF group is administered a PGF used in the method of this invention. The length of the assay is 24 days with 15 treatment days (wherein the treatment days occur Mondays through Fridays). Day 1 is the first day of treatment. Typical dosage concentrations are set forth in Table 1, however the skilled artisan will readily understand that such concentrations may be modified.
The mice are treated topically Monday through Friday on their lower back (base of tail to the lower rib). A pipettor and tip are used to deliver 400 μL to each mouse's back. The 400 μL application is applied slowly while moving hair on the mouse to allow the application to reach the skin.
While each treatment is being applied to the mouse topically, a visual grade of from 0 to 4 will be given to the skin color in the application area of each animal. As a mouse converts from telogen to anagen, its skin color will become more bluish-black.

For experiment [2], the target named is T1, hFP receptor (hFP membrane from transfected COS-7 cells) (Homo sapiens, UniProt P43088).
T1 construct: expressed in transfected cells; host or cells: COS-7 cells (transient transfection, LipofectAMINE); membrane preparation
T1 sequence (P43088 whole entry): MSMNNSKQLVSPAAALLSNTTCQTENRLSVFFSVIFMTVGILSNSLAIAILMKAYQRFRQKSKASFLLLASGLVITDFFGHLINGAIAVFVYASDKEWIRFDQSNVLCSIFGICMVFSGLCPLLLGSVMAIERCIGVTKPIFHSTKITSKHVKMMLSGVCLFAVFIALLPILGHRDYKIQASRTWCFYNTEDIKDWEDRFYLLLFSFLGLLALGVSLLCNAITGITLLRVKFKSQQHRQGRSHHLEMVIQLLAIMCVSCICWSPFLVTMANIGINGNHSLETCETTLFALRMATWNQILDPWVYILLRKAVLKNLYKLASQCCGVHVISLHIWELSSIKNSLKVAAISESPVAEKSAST
Briefly: Radioligand Binding Assay. To be noted: competition with (3H) PGF2 on hFP membrane; read-out: IC50 the PGF. Here is the method: IC50 of a PGF can be determined relative to PGF2α using the Radioligand Binding Assay. As a control, the IC50 for PGF2α itself should be no lower than 1.0 nM and no higher than 5.0 nM.
In this assay, COS-7 cells are transiently transfected with the hFP recombinant plasmid using LipofectAMINE Reagent. Forty-eight hours later, the transfected cells are washed with Hank's Balanced Salt Solution (HBSS, without CaCl2, MgCl2, MgSO4, or phenol red). The cells are detached with versene, and HBSS is added. The mixture is centrifuged at 200 g for 10 minutes, at 4° C. to pellet the cells. The pellet is resuspended in Phosphate-Buffered Saline-EDTA buffer (PBS; 1 mM EDTA; pH 7.4; 4° C.). The cells are disrupted by nitrogen cavitation (Parr model 4639), at 800 psi, for 15 minutes at 4° C. The mixture is centrifuged at 1000 g for 10 minutes at 4° C. The supernatant is centrifuged at 100,000 g for 60 minutes at 4° C. The pellet is resuspended to 1 mg protein/mL TME buffer (50 mM Tris; 10 mM MgCl2; 1 mM EDTA; pH 6.0; 4° C.) based on protein levels measured using the Pierce BCA Protein Assay kit. The homogenate is mixed for 10 seconds using a Kinematica POLYTRON® (available from KINEMATICA AG, Luzernerstrasse 147A CH-6014 Littau, Switzerland). The membrane preparations are then stored at −80° C., until thawed for assay use.
The receptor competition binding assays are developed in a 96 well format. Each well contains […] of hFP membrane, 5 nM (3H) PGF2, and the various competing compounds in a total volume of […]. The plates are incubated at 23° C. for 1 hour. The incubation is terminated by rapid filtration using the Packard Filtermate 196 harvester through Packard UNIFILTER® GF/B filters (available from Packard Instrument Co., Inc. of Downers Grove Ill.) pre-wetted with TME buffer. The filter is washed four times with TME buffer. […] The plates are read on a Packard TOPCOUNT® Microplate Scintillation Counter (also available from Packard Instrument Co., Inc.)

`CC(C)OC(=O)CCCCCC[C@@H]1[C@@H](CCC(O)CSc2ccccc2)[C@H](O)C[C@@H]1O` (stereo partly drawn) [Example 1]: in experiment [1], the “hair growth (result in words)” value is “grew hair” and the “Average Grades, 23 Days” value is given as 0.4. Also, in experiment [1] (visual skin color grade 0 to 4, average of 7 mice after 25 days), the “Average Grades, 25 Days” value came out at 0.1. Also, the “Average Grades, 26 Days” value in experiment [1] (visual skin color grade 0 to 4, average of 7 mice after 26 days) is 0.7.

With `COC(=O)CCCCCC[C@@H]1[C@@H](CCC(O)CSc2ccccc2Br)[C@H](O)C[C@@H]1O` (stereo partly drawn) [Example 2], in experiment [1], the “hair growth (result in words)” value is recorded as “grew hair” and the “Average Grades, 23 Days” value is given as 0.1.

In general, IC50 refers to the concentration that gives 50% inhibition. With `O=C(O)CCCCCC[C@@H]1[C@@H](CCC(O)CSc2cccc(F)c2)[C@H](O)C[C@@H]1O` (stereo partly drawn) [Example 3-1], the IC50 in experiment [2] turned out to be 0.007 µM.

For `O=C(O)CCCCCC[C@@H]1[C@@H](CCC(O)CSc2ccccc2F)[C@H](O)C[C@@H]1O` (stereo partly drawn) [Example 3-2], the 50% inhibitory concentration (IC50) in experiment [2] is 0.01 µM.

Regarding `CC(O)(CC[C@@H]1[C@@H](CCCCCCC(=O)O)[C@@H](O)C[C@H]1O)CSc1ccccc1` (stereo partly drawn) [Example 3-3], in experiment [2], the half-maximal inhibitory concentration (IC50) came to 0.024 µM.
